Source: ChEMBL document CHEMBL1201862, “PubChem BioAssay data set” (2004)
Values belong to the compound of their own block, whether it stands above or below them. Calls of active or inactive are those of the source.

How the values were obtained:
[1] = molecular target: T1, E3 ubiquitin-protein ligase XIAP (Homo sapiens, UniProt P98170); assay: XIAP antagonists, biochemical, IAP family, fluorescence polarization (AID 1018); assay type: functional
[2] = cytotoxicity toward NIH3T3 fibroblasts, dose response, counter-screen, cell-based, ATP luminescence, mouse fibroblasts (AID 2010); assay type: functional;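 also: cells exposed to compound for about 90 hours before reading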
[3] = molecular target: T1, E3 ubiquitin-protein ligase XIAP; assay: Counter Screen using XIAP-Bir3 for Chemical Antagonists of Bir1/2 domains of IAP-family anti-apoptotic proteins. [Related pubchem assays (depositor defined):AID1018, AID1449, AID1514, AID1638, AID1749, AID1750, AID488957, AID488963]
[4] = inhibitors of intracellular T. cruzi replication, confirmation, NIH3T3 host cells, beta-gal luminescence (AID 2044); assay type: functional, cell-based;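 also: intracellular parasites grown in NIH/3T3 mouse fibroblasts as host cells; luminescent beta-galactosidase reporter signal from transgenic T. cruzi replicating inside host cells; inhibitors lower the luminescence signal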
[5] = molecular target: T2, Nuclear receptor subfamily 0 group B member 1 (Homo sapiens, UniProt P51843); assay: Luminescence-based cell-based high throughput dose response assay for inhibitors of the orphan nuclear receptor subfamily 0, group B, member 1 (DAX1; NR0B1). [Related pubchem assays (depositor defined):AID504766, AID504790]; assay type: functional
T2 sequence (P51843 whole entry): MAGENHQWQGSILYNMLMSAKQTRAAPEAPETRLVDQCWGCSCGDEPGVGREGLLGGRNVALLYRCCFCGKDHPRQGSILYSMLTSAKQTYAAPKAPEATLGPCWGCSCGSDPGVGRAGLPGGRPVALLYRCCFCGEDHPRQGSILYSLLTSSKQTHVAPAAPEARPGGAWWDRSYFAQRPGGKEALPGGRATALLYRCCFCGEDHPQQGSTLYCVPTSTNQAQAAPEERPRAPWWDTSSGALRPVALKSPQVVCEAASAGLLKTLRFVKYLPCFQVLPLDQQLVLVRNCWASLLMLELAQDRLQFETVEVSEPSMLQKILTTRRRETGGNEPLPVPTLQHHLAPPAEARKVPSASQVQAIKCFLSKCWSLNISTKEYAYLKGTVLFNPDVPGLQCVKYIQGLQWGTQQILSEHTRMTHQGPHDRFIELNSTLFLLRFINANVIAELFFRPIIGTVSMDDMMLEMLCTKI

[6] = system: HEK293; assay: cells; assay type: functional, cell-based; details: Homo sapiens
[7] = molecular target: G-protein coupled receptor 35 (Homo sapiens, UniProt Q9HC97); assay: GPR35 antagonists blocking zaprinast-driven arrestin recruitment, primary screen, imaging, U2OS, beta-arrestin-GFP, zaprinast agonist (AID 2058); assay type: functional;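 also: antagonist potency meaning inhibition of agonist-induced arrestin redistribution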
[8] = molecular target: T3, C-C chemokine receptor type 6 (Homo sapiens, UniProt P51684); assay: CCR6 receptor antagonists, dose response, cell-based, luminescent beta-arrestin readout (AID 504728); assay type: functional
T3 sequence (P51684 whole entry): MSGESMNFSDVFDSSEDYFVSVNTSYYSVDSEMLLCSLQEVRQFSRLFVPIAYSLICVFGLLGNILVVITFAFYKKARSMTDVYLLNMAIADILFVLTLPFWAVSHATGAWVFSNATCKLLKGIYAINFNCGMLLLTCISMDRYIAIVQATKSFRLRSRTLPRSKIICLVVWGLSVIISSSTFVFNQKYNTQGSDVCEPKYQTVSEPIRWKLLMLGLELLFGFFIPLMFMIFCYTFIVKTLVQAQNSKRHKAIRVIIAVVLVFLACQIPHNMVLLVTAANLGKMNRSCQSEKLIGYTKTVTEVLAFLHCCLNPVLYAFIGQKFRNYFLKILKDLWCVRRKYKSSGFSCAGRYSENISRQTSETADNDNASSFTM

[9] = molecular target: Beta-galactosidase (Escherichia coli, UniProt Q8VNN2); assay: beta-galactosidase enzyme inhibitors and activators, dose response, artefact control for CCR6 antagonist project, biochemical, E. coli enzyme, set 3 (AID 504712); assay type: functional
[10] = molecular target: Cytochrome P450 3A4 (Homo sapiens, UniProt P08684);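 also: CYP3A4 tested as one member of a cytochrome P450 panel screen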
[11] = molecular target: Cytochrome P450 2C9 (Homo sapiens, UniProt P11712)
[12] = molecular target: Intestinal-type alkaline phosphatase (Homo sapiens, UniProt P09923); assay: Dose Response confirmation of uHTS hits from a small molecule inhibitors of human intestinal alkaline phosphatase via a luminescent assay. [Related pubchem assays (depositor defined):AID2544, AID2574]; assay type: functional
Intestinal-type alkaline phosphatase, sequence (P09923 whole entry): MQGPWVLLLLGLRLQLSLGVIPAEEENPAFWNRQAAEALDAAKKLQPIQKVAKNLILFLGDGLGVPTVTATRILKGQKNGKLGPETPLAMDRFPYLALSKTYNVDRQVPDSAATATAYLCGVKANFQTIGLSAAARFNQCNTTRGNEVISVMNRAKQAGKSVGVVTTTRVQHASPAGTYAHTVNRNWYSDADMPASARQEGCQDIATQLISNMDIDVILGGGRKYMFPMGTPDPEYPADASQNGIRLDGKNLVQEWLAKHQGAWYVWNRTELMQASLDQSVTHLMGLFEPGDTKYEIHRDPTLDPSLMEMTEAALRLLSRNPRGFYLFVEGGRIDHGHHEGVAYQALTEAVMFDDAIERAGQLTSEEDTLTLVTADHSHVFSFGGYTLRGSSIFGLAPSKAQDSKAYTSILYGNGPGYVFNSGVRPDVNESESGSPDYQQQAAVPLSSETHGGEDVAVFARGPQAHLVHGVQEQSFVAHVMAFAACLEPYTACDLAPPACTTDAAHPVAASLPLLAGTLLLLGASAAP

T1 sequence (P98170 whole entry): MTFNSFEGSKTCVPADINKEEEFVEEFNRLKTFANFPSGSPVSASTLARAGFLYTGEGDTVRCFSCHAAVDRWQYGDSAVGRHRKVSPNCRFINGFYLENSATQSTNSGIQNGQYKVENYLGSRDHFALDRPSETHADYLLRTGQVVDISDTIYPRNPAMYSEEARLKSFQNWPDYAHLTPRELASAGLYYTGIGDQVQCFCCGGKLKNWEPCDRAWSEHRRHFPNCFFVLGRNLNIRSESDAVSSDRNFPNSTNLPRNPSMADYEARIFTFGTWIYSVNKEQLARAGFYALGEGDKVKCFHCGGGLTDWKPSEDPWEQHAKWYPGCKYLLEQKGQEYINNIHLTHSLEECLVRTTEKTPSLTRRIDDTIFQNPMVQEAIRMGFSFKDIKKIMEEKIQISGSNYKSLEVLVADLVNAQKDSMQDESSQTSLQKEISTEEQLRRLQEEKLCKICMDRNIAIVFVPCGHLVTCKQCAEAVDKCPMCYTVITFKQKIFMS
G-protein coupled receptor 35, sequence (Q9HC97 whole entry): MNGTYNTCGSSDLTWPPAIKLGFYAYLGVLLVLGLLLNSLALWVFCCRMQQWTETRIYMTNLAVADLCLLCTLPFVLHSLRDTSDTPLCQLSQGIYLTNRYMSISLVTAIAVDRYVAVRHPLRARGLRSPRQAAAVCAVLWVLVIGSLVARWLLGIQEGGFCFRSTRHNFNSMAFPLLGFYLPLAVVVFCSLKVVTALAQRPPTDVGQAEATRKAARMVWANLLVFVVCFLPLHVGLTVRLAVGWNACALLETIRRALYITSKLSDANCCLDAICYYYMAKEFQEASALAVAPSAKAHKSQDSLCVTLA
Cytochrome P450 2C9, sequence (P11712 whole entry): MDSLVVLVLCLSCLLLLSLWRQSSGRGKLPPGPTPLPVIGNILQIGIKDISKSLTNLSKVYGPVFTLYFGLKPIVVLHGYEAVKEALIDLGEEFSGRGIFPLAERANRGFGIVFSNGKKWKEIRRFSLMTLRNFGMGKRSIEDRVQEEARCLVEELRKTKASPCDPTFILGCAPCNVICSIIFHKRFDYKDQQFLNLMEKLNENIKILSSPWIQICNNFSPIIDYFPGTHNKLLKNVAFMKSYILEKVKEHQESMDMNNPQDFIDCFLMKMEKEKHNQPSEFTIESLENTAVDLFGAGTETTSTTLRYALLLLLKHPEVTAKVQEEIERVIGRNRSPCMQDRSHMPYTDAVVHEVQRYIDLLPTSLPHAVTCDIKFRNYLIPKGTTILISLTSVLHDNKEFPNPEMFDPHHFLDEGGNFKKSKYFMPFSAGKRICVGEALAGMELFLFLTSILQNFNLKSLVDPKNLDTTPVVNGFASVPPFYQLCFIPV
Cytochrome P450 3A4, sequence (P08684 whole entry): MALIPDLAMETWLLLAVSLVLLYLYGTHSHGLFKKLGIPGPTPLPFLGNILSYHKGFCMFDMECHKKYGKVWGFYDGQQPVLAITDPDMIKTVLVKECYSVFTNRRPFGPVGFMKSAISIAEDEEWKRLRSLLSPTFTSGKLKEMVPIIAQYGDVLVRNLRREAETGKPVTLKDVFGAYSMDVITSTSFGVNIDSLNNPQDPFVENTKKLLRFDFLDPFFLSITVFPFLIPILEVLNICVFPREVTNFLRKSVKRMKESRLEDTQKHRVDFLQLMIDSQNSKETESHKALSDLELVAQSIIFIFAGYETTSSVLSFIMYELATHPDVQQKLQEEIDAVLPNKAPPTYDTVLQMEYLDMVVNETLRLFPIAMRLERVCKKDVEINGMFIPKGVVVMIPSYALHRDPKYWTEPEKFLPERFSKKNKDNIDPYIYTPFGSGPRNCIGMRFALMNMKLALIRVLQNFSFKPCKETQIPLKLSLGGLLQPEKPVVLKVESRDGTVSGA
Beta-galactosidase, sequence (Q8VNN2 whole entry): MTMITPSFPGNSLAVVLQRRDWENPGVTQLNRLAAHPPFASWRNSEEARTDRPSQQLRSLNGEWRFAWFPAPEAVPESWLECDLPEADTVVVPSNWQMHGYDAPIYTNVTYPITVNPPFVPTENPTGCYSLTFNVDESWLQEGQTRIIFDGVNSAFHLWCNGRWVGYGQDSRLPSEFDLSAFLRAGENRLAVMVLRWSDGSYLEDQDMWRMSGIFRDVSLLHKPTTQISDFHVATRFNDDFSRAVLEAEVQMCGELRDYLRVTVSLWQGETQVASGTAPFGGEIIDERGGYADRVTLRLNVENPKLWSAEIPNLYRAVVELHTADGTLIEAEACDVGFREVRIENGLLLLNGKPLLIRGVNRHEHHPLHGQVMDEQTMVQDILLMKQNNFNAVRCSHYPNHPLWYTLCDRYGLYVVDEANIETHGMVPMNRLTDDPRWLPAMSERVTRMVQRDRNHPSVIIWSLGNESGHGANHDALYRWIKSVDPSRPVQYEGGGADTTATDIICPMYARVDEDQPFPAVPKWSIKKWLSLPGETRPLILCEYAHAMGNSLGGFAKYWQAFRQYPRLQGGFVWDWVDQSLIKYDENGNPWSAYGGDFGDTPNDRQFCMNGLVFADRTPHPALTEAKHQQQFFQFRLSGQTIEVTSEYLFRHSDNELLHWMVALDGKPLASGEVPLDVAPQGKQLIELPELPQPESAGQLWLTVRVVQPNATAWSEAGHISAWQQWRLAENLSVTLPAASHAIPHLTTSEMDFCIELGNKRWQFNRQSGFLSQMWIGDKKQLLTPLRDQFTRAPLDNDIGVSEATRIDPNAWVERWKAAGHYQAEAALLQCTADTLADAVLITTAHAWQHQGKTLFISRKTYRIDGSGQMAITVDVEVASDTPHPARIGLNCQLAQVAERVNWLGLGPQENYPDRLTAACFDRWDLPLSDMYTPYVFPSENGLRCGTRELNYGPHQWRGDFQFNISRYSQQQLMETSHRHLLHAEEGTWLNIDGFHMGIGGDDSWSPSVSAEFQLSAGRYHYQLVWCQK

IC50 [1]: > 100 µM (not active) | IC50 [3]: > 100 µM (inactive)
SMILES: COc1ccccc1C1SCCN1S(=O)(=O)c1cccc(C(F)(F)F)c1 (stereo unspecified)

IC50 [8]: > 66.6 µM (inactive) | IC50 [9]: > 66.6 µM (inactive)
SMILES: Cc1ccc(C(=C2C3C=CC2C2C(=O)NC(=O)C32)c2ccc(C)cc2)cc1 (stereo unspecified)

AC50 [10]: inconclusive | AC50 [11]: inconclusive
SMILES: CC(C)NC(=O)N1CCC2(CC1)CCN(C(=O)c1cc(C(F)(F)F)cc(C(F)(F)F)c1)CC2

IC50 [12]: > 100 µM (inactive)
SMILES: COc1cc(/C=C/C(=O)OCC(=O)NC(=O)NC2CCCCC2)ccc1OC(F)F

More lines, now with the values behind:

SMILES: S=C(Nc1ccc(Br)cc1)N1CCn2cccc2C1c1cccnc1 (stereo unspecified)
IC50 [1]: > 100 µM (not active) | EC50 [2]: > 60 µM (not active) | IC50 [3]: > 100 µM (inactive) | EC50 [4]: 0.605 µM (active)

SMILES: Cn1c(NCc2ccccc2Cl)nc2ccccc21
IC50 [5]: > 67.6 µM (inactive) | IC50 [6]: > 67.6 µM (inactive)

SMILES: CS(=O)(=O)N1N=C(c2ccccc2)CC1c1ccc2c(c1)OCO2 (stereo unspecified)
IC50 [7]: 1.42 µM (active)

SMILES: COc1ccc(-c2cc3nc(C)cc(C)n3n2)cc1
IC50 [5]: > 67.5 µM (inactive) | IC50 [6]: > 67.5 µM (inactive)
